Patent publication US20140080214A1, “CLEAVABLE CELLULOSIC SPONGE DEVELOPMENT FOR 3 DIMENSIONAL CELL CULTURE AND SPHEROIDS RETRIEVAL” (Agency for Science, Technology and Research, priority 2012, published 2014)
Entries after “also recorded” stand apart in the source; their conditions may differ.

How the values were obtained:
[1] = Sponge cleavage condition optimization (visual monitoring of sponge incubated with reductant); conditions: 37° C.; for Remarks: sponge cleavage: 1 mM reductant in William's E medium
Experimental: For easy visualization during cleavage, HPCSS Gal sponges were pre-soaked in 0.25 mg/mL propidium iodide overnight (Molecular Probes, USA). The stained sponges were incubated with 3 mL each of TCEP and DTT (as known strong reductant) per sponge at various concentrations (25, 10, 5, 3 and 1 mM) in 37° C., 5% CO2 and 95% incubator. The morphological changes of the sponge were monitored visually every 15 minutes.

[2] = reduction of disulfide bonds; cited from earlier work
[3] = test system: cells; conditions: 10 mg/mL, 24 hours of exposure; cited from earlier work
[4] = test system: F-actin, E-cadherin and MRP2; experiment: Immunofluorescence staining of polarity markers and cell-cell junction of retrieved hepatocyte spheroids; format: cell-based, rat; conditions: 10 mM TCEP to cleave the sponge
Experimental: To stain F-actin, E-cadherin and MRP2, hepatocytes spheroids cultured for 72 hours post-seeding in the sponges and retrieved from HPCSS Gal sponges were fixed in 3.7% paraformaldehyde for 10 minutes. For staining F-actin, the cells were permeabilized for 5 minutes in 0.1% Triton X-100 and incubated with 1 μg/mL TRITC-phalloidin (Molecular Probes, USA) for 20 minutes. For E-cadherin and MRP2 staining, following washing and blocking with 2% BSA/0.2% Triton-X 100 the spheroids were incubated overnight at 4° C. with primary antibodies: anti-rat E-cadherin (BD, USA) and rabbit anti-rat MRP2 (Sigma Aldrich, Singapore), respectively. Secondary antibodies used were goat anti-mouse and goat anti-rabbit 488 and 555 (Molecular Probes, USA), respectively. Nuclei stain was captured using DAPI stain (Vecta Shield, UK). Images were captured using Olympus fluoview FV1000 with a 60× water lens. Images were analysed using IMARIS and assembled using Adobe illustrator CS3.

[5] = test system: primary rat hepatocyte; experiment: TCEP toxicity study in primary rat hepatocyte (MTT); format: cell-based; conditions: for primary rat hepatocyte viability: MTT, ratio to untreated
Experimental: Primary rat hepatocyte was seeded on collagen coated well in 24-well plate format (0.3×10^6 cell per well). The culture was maintained for 3 days and the medium was replenished every day. On the 3rd day, the cells were incubated with TCEP solution in Williams' E medium at pre-determined concentrations and time; 5 mM for 1.5 hour, 10 and 25 mM for 30 minutes each. The duration of the incubation was chosen based on the ability of the associated TCEP concentrations to completely cleave HPCSS Gal sponge. Upon incubation, the morphology of the cells was monitored and followed with further incubation of 1 mg/mL (3-(4,5-dimethylthiazol-2-yl)-2,5-diphenyltetrazolium bromide (MTT) solution for 3 hours. The formed formazan product in each well was dissolved with 300 μL of 0.04 M HCl in isopropanol and its optical density was measured by TECAM Infinite M1000 microplate reader at 570 nm. Cell viability was determined by calculating the ratio of treated sample absorbance against untreated sample absorbance.

[6] = Dynamic of sponge cleavage with time lapse imaging; conditions: 10 mM TCEP, 37° C., confocal time lapse
Experimental: The propidium iodide-prestained HPCSS Gal sponges were incubated with 10 mM TCEP and its macroporosity changes were monitored by Olympus fluoview FV1000 equipped with 37° C. heated chamber with a 60× water lens for 30 minutes with 2 minutes time interval. Images were analysed using IMARIS and images assembled using Adobe illustrator CS3.

[7] = test system: CYP1A2, CYP2B2 and CYP3A2; experiment: RT-PCR gene expression of cytochrome P450 genes in hepatocyte spheroids; format: cell-based; conditions: 10 mM TCEP, 30 minutes, rat hepatocyte spheroids
Experimental: Rat hepatocyte, E1 and mESCs spheroids were retrieved from the sponge by incubating cell seeded-cleavable sponge with 3 mL of 10 mM TCEP in respective cell culture mediums in each well of 12-well plate for 30 minutes at 37° C. (incubator set up 5% CO2 and 95% humidity). The cleaved sponge solution from each well was mixed thoroughly by 3 mL plastic dropper and then transferred into 15 mL falcon tube. This solution was further diluted with 3 mL pre-warmed DPBS and centrifuged at 100×g for 10 minutes. This washing step was repeated three times to remove TCEP solution completely. Eventually, the retrieved hepatocyte spheroids were resuspended in fresh mediums and replated on collagen coated dish or poly-L-lysine coated dish for further assays or spheroids manipulation.
RNA was extracted from hepatocytes cultured as 3D spheroids in HPCSS Gal sponges by RLT lysis buffer (Qiagen, Singapore). Total RNA concentration was quantified by a Nanodrop (Thermoscientific) and 1 μg of RNA was converted to cDNA by High Capacity RNA-to-cDNA (Applied Biosystems). Primers were designed using Primer 3 and real-time PCR was performed by using SYBR green fast master mix on a ABI 7500 Fast Real-Time PCR system (Applied Biosystems). Gene expression was calculated using the ΔΔCT method normalized to GAPDH. The primers used in experiment are shown below.

[8] = 3 mM reductant in William's E medium
[9] = 5 mM reductant in William's E medium
[10] = 25 mM reductant in William's E medium

Row | Compound | Remarks: sponge cleavage [1] | Remarks: time within which sponge cleaved [1, 8] | Remarks: time within which sponge cleaved [1, 9] | Remarks: time within which sponge cleaved ([1]; 10 mM reductant in William's E medium) | Remarks: time within which sponge cleaved [1, 10] | pH range at which the reductant is effective [2] | remaining viable cells [3] [%] | effect of TCEP incubation on polarity markers and cell-cell junction [4] | primary rat hepatocyte viability ([5]; 5 mM, 1.5 hour) [%] | primary rat hepatocyte viability ([5]; 10 mM, 30 minutes) [%] | primary rat hepatocyte viability ([5]; 25 mM, 30 minutes) [%] | cell damage in phase contrast images ([5]; hepatocytes with and without TCEP incubation) | maintenance of cell viability (FIG. 10 legend) ([5]; rat hepatocyte, all TCEP configurations tested) [%] | time at which sponge macroporous networks had shrunken significantly [6] [min] | effect of TCEP incubation on CYP genes [7]
1 | O[C@H](CS)[C@H](O)CS (racemic) [DTT, dithiothreitol] | Sponge not | within 2 hours | within 1.5 hour | within 30 minutes | within 30 minutes | 7-8.1 |  |  |  |  |  |  |  |  | 
2 | O=C(O)CCP(CCC(=O)O)CCC(=O)O [TCEP, tris(2-carboxyethyl)phosphine] | Sponge not | within 2 hours | within 1.5 hour |  | within 30 minutes | 1.5-8.5 | 60 | does not show harmful effect | 79.75±10.71 | 87.42±8.03 | 93.06±6.96 | No significant cell damage | > 80 | 6 | did not show any significant detrimental effect; also recorded: no significant effect
